In the assay the target is ERα (Homo sapiens (Human), UniProt P03372). Kind of assay: Estrogen receptor degradation activity: breast cancer cell ERα in cell western assay. In kind it is cell-based. The note with it: MCF7 cells; for % Degradation At 0.3 μM: 4 hours, normalised to fulvestrant 0.1 μM and DMSO; for IC50 / DC50: 4 hours post compound addition, concentration which degrades 50% of the estrogen receptor; for DC50: read-out: Degradation IC50. An outline of the steps: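 MCF7 cells in phenol-red-free medium with 5% charcoal-stripped FBS, treated 4 h with 9-point 1:5 dilutions (0.3-0.0000018 μM final). ERα measured by in-cell western (anti-ER antibody, Alexa 488), normalized to Syto-64 DNA stain; % decrease scaled DMSO to 0.1 μM fulvestrant, IC50 in nM.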
ERα, sequence (P03372 whole entry): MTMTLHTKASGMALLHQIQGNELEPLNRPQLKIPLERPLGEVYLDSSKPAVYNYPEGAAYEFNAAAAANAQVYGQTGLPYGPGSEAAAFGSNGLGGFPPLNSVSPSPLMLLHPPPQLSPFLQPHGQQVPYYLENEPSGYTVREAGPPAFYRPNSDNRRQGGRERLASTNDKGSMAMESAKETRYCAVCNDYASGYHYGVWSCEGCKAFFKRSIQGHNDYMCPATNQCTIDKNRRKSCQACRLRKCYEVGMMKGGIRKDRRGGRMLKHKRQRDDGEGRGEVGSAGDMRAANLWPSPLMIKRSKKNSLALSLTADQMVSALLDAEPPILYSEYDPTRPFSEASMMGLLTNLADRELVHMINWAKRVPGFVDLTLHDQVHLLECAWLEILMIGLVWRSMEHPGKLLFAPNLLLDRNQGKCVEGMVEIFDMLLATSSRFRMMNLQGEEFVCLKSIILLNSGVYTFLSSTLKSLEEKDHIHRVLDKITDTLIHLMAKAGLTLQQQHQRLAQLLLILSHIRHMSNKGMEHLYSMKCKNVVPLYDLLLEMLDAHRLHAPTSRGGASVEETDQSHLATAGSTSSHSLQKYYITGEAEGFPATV

SMILES strings stand for the structures.

In general, IC50 refers to the concentration needed to halve the response being measured.

`C[C@H]1CC[C@H](C2=C(c3ccc(C=C4CN(CCCF)C4)cc3)c3ccc(C(=O)O)cc3CCC2)CC1` [Compound 56, 9-(4-((1-(3-fluoropropyl)azetidin-3-ylidene)methyl)phenyl)-8-(trans-4-methylcyclohexyl)-6,7-dihydro-5H-benzo[7]annulene-3-carboxylic acid]: the “% Degradation At 0.3 μM” value came to 92% and the midpoint of inhibition, the IC50, lay at 700 pM.

For `Cc1ccc(C(F)F)c(C2=C(c3ccc(C=C4CN(CCCF)C4)cc3)c3ccc(C(=O)O)cc3CCC2)c1` [Compound 57, 8-(2-(difluoromethyl)-5-methylphenyl)-9-(4-((1-(3-fluoropropyl)azetidin-3-ylidene)methyl)phenyl)-6,7-dihydro-5H-benzo[7]annulene-3-carboxylic acid], the “% Degradation At 0.3 μM” value worked out at 93% and the IC50 was 700 pM.

As for `O=C(O)c1ccc2c(c1)CCCC(c1ccccc1C(F)F)=C2c1ccc(C=C2CN(CCCF)C2)cc1` [Compound 58, 8-(2-(difluoromethyl)phenyl)-9-(4-((1-(3-fluoropropyl)azetidin-3-ylidene)methyl)phenyl)-6,7-dihydro-5H-benzo[7]annulene-3-carboxylic acid], the “% Degradation At 0.3 μM” value came out at 93% and the midpoint of inhibition, the IC50, lay at 200 pM.

With `COc1cc(C(F)(F)F)ccc1C1=C(c2ccc(C=C3CN(CCCF)C3)cc2)c2ccc(C(=O)O)cc2CCC1` [Compound 59, 9-(4-((1-(3-fluoropropyl)azetidin-3-ylidene)methyl)phenyl)-8-(2-methoxy-4-(trifluoromethyl)phenyl)-6,7-dihydro-5H-benzo[7]annulene-3-carboxylic acid], the “% Degradation At 0.3 μM” value came out at 92% and the IC50 turned out to be 900 pM.

Take `COc1cccc(C2=C(c3ccc(C=C4CN(CCCF)C4)cc3)c3ccc(C(=O)O)cc3CCC2)c1C(F)F` [Compound 60, 8-(2-(difluoromethyl)-3-methoxyphenyl)-9-(4-((1-(3-fluoropropyl)azetidin-3-ylidene)methyl)phenyl)-6,7-dihydro-5H-benzo[7]annulene-3-carboxylic acid]: the “% Degradation At 0.3 μM” value is 93% and the half-inhibitory concentration (IC50) was 600 pM.

Turning to `C[C@H]1CC[C@@H](C2=C(c3ccc(C=C4CN(CCCF)C4)cc3)c3ccc(C(=O)O)cc3CCC2)CC1` [Compound 61, 9-(4-((1-(3-fluoropropyl)azetidin-3-ylidene)methyl)phenyl)-8-(cis-4-methylcyclohexyl)-6,7-dihydro-5H-benzo[7]annulene-3-carboxylic acid], the “% Degradation At 0.3 μM” value is 91% and the IC50 came to 900 pM.

Regarding `COc1ccc(C2=C(c3ccc(C=C4CN(CCCF)C4)cc3)c3ccc(C(=O)O)cc3CCC2)c(C(F)(F)F)c1` [Compound 62, 9-(4-((1-(3-fluoropropyl)azetidin-3-ylidene)methyl)phenyl)-8-(4-methoxy-2-(trifluoromethyl)phenyl)-6,7-dihydro-5H-benzo[7]annulene-3-carboxylic acid], the “% Degradation At 0.3 μM” value worked out at 93% and it took 500 pM to reach half-maximal inhibition (IC50).

As for `COc1c(C2=C(c3ccc(C=C4CN(CCCF)C4)cc3)c3ccc(C(=O)O)cc3CCC2)cccc1C(F)(F)F` [Compound 63, 9-(4-((1-(3-fluoropropyl)azetidin-3-ylidene)methyl)phenyl)-8-(2-methoxy-3-(trifluoromethyl)phenyl)-6,7-dihydro-5H-benzo[7]annulene-3-carboxylic acid], the “% Degradation At 0.3 μM” value is 94% and half-maximal inhibition (IC50) was put at 1000 pM.

With `O=C(O)c1ccc2c(c1)CCCC(c1cccc3c1CCCO3)=C2c1ccc(C=C2CN(CCCF)C2)cc1` [Compound 64, 8-(chroman-5-yl)-9-(4-((1-(3-fluoropropyl)azetidin-3-ylidene)methyl)phenyl)-6,7-dihydro-5H-benzo[7]annulene-3-carboxylic acid], the “% Degradation At 0.3 μM” value is 96% and it took 3100 pM to reach half-maximal inhibition (IC50).

On to `CC1(C)CCC(C2=C(c3ncc(C=C4CN(CCCF)C4)cc3F)c3ccc(C(=O)O)cc3CCC2)CC1` [Compound 65, 8-(4,4-dimethylcyclohexyl)-9-(3-fluoro-5-((1-(3-fluoropropyl)azetidin-3-ylidene)methyl)pyridin-2-yl)-6,7-dihydro-5H-benzo[7]annulene-3-carboxylic acid], for which the “% Degradation At 0.3 μM” value is 91% and the midpoint of inhibition, the IC50, lay at 800 pM.

Take `CC1(C)CCC(C2=C(c3ncc(C=C4CN(CCC(F)F)C4)cc3F)c3ccc(C(=O)O)cc3CCC2)CC1` [Compound 66, 9-(5-((1-(3,3-difluoropropyl)azetidin-3-ylidene)methyl)-3-fluoropyridin-2-yl)-8-(4,4-dimethylcyclohexyl)-6,7-dihydro-5H-benzo[7]annulene-3-carboxylic acid]: the “% Degradation At 0.3 μM” value is recorded as 86% and it took 1700 pM to reach half-maximal inhibition (IC50).

Consider `O=C(O)c1ccc2c(c1)CCCC(c1cccc3c1OCCC3)=C2c1ccc(C=C2CN(CCCF)C2)cc1` [Compound 67, 8-(chroman-8-yl)-9-(4-((1-(3-fluoropropyl)azetidin-3-ylidene)methyl)phenyl)-6,7-dihydro-5H-benzo[7]annulene-3-carboxylic acid], for which the “% Degradation At 0.3 μM” value came out at 90% and inhibition was half-maximal at 1000 pM (IC50).

On to `CC1(C)CCC(C2=C(c3ccc(C=C4CN(CCCF)C4)cc3)c3ccc(C(=O)O)cc3CCC2)CC1` [Compound 68, 8-(4,4-dimethylcyclohexyl)-9-(4-((1-(3-fluoropropyl)azetidin-3-ylidene)methyl)phenyl)-6,7-dihydro-5H-benzo[7]annulene-3-carboxylic acid], for which the “% Degradation At 0.3 μM” value was 86% and the DC50 was found to be 700 pM.

Take `COc1cc(C(F)(F)F)cc(C(F)(F)F)c1C1=C(c2ccc(C=C3CN(CCCF)C3)cc2)c2ccc(C(=O)O)cc2CCC1` [Compound 71, 9-(4-((1-(3-fluoropropyl)azetidin-3-ylidene)methyl)phenyl)-8-(2-methoxy-4,6-bis(trifluoromethyl)phenyl)-6,7-dihydro-5H-benzo[7]annulene-3-carboxylic acid]: the “% Degradation At 0.3 μM” value was determined as 95% and half-maximal inhibition (IC50) required 500 pM.

As for `Cc1cc(C)c(C2=C(c3ccc(C=C4CN(CCCF)C4)cc3)c3ccc(C(=O)O)cc3CCC2)c(C(F)(F)F)c1` [Compound 72, 8-(2,4-dimethyl-6-(trifluoromethyl)phenyl)-9-(4-((1-(3-fluoropropyl)azetidin-3-ylidene)methyl)phenyl)-6,7-dihydro-5H-benzo[7]annulene-3-carboxylic acid], the “% Degradation At 0.3 μM” value is 100% and the concentration for half-maximal inhibition (IC50) amounted to 300 pM.

For the compound `Cc1c(C2=C(c3ccc(C=C4CN(CCCF)C4)cc3)c3ccc(C(=O)O)cc3CCC2)ccc(C(F)(F)F)c1F` [Compound 73, 8-(3-fluoro-2-methyl-4-(trifluoromethyl)phenyl)-9-(4-((1-(3-fluoropropyl)azetidin-3-ylidene)methyl)phenyl)-6,7-dihydro-5H-benzo[7]annulene-3-carboxylic acid], the “% Degradation At 0.3 μM” value came to 85% and the DC50 amounted to 300 pM.

Take `CCc1cccc(CC)c1C1=C(c2ccc(C=C3CN(CCCF)C3)cc2)c2ccc(C(=O)O)cc2CCC1` [Compound 74, 8-(2,6-diethylphenyl)-9-(4-((1-(3-fluoropropyl)azetidin-3-ylidene)methyl)phenyl)-6,7-dihydro-5H-benzo[7]annulene-3-carboxylic acid]: the “% Degradation At 0.3 μM” value was found to be 90% and the IC50 is 800 pM.

Turning to `Cc1ccc(F)c(C)c1C1=C(c2ccc(C=C3CN(CCCF)C3)cc2)c2ccc(C(=O)O)cc2CCC1` [Compound 75, 8-(3-fluoro-2,6-dimethylphenyl)-9-(4-((1-(3-fluoropropyl)azetidin-3-ylidene)methyl)phenyl)-6,7-dihydro-5H-benzo[7]annulene-3-carboxylic acid], the “% Degradation At 0.3 μM” value is on record as 95% and inhibition was half-maximal at 200 pM (IC50).

For the compound `Cc1cc(C)c(C2=C(c3ccc(C=C4CN(CCCF)C4)cc3)c3ccc(C(=O)O)cc3CCC2)c(F)c1` [Compound 76, 8-(2-fluoro-4,6-dimethylphenyl)-9-(4-((1-(3-fluoropropyl)azetidin-3-ylidene)methyl)phenyl)-6,7-dihydro-5H-benzo[7]annulene-3-carboxylic acid], the “% Degradation At 0.3 μM” value was determined as 95% and the IC50 is 200 pM.

`Cc1cccc(OC(F)(F)F)c1C1=C(c2ccc(C=C3CN(CCCF)C3)cc2)c2ccc(C(=O)O)cc2CCC1` [Compound 77, 9-(4-((1-(3-fluoropropyl)azetidin-3-ylidene)methyl)phenyl)-8-(2-methyl-6-(trifluoromethoxy)phenyl)-6,7-dihydro-5H-benzo[7]annulene-3-carboxylic acid]: the “% Degradation At 0.3 μM” value amounted to 95% and the IC50 is 700 pM.

Consider `Cc1cc(C(F)(F)F)c(C)cc1C1=C(c2ccc(C=C3CN(CCCF)C3)cc2)c2ccc(C(=O)O)cc2CCC1` [Compound 78, 8-(2,5-dimethyl-4-(trifluoromethyl)phenyl)-9-(4-((1-(3-fluoropropyl)azetidin-3-ylidene)methyl)phenyl)-6,7-dihydro-5H-benzo[7]annulene-3-carboxylic acid], for which the “% Degradation At 0.3 μM” value amounted to 94% and the IC50 came out at 400 pM.

For `O=C(O)c1ccc2c(c1)CCCC(c1cccc(C(F)(F)F)c1C(F)(F)F)=C2c1ccc(C=C2CN(CCCF)C2)cc1` [Compound 79, 8-(2,3-bis(trifluoromethyl)phenyl)-9-(4-((1-(3-fluoropropyl)azetidin-3-ylidene)methyl)phenyl)-6,7-dihydro-5H-benzo[7]annulene-3-carboxylic acid], the “% Degradation At 0.3 μM” value stood at 100% and the IC50 is 400 pM.

In the case of `CCc1cc(C)cc(CC)c1C1=C(c2ccc(C=C3CN(CCCF)C3)cc2)c2ccc(C(=O)O)cc2CCC1` [Compound 80, 8-(2,6-diethyl-4-methylphenyl)-9-(4-((1-(3-fluoropropyl)azetidin-3-ylidene)methyl)phenyl)-6,7-dihydro-5H-benzo[7]annulene-3-carboxylic acid], the “% Degradation At 0.3 μM” value came to 105% and the IC50 worked out at 1200 pM.

For the origin of these results see patent US20250255848A1, “SUBSTITUTED 6,7-DIHYDRO-5H-BENZO[7]ANNULENE DERIVATIVES, PROCESSES FOR THEIR PREPARATION AND THERAPEUTIC USES THEREOF” (SANOFI, priority 2022, published 2025).
